# From US12239647B2, “ALS treatment using induced regulatory T (iTREG) cells” (RAPA THERAPEUTICS, LLC, priority 2018, dated 2025)
# B1: IL-4: Th2 polarizing cytokine added to re-differentiation culture (protein, UniProt P05112 25-153, looked up)
# Interleukin-4: HKCDITLQEIIKTLNSLTEQKTLCTELTVTDIFAASKNTTEKETFCRAATVLRQFYSHHEKDTRCLGATAQQFHRHKQLIRFLKRLDRNLWGLAGLNSCPVKEANQSTLENFLERLKTIMREKYSKCSS
# B2: Daclizumab: anti-IL-2 receptor monoclonal antibody (antibody, chains of the INN, looked up, V domains shown)
# VH: QVQLVQSGAEVKKPGSSVKVSCKASGYTFTSYRMHWVRQAPGQGLEWIGYINPSTGYTEYNQKFKDKATITADESTNTAYMELSSLRSEDTAVYYCARGGGVFDYWGQGTLVTVSS
# VL: DIQMTQSPSTLSASVGDRVTITCSASSSISYMHWYQQKPGKAPKLLIYTTSNLASGVPARFSGSGSGTEFTLTISSLQPDDFATYYCHQRSTYPLTFGQGTKVEVK
# How the values were obtained:
# [1] = system: CD8+ T cells; experiment: Flow cytometry of CD8+ T cell memory markers after de-differentiation interval; format: cell-based, human; conditions: reducing or eliminating only temsirolimus from the initial culture interval (columns #5 and 6)
# Procedure: After the 3-day interval, media was exchanged to fresh X-Vivo 20 without inhibitors, high-level co-stimulation was provided (3:1 bead-to-T cell ratio), and the T cell growth cytokines IL-2 (100 IU/ml) and IL-7 (10 ng/ml) were added. T cells were subjected to flow cytometry for evaluation of co-expression of CD8^+, CD62L^+, and CCR7^+ markers (left panel; evaluated at day 10 of culture); and co-expression of CD8^+, CD62L^+, CCR7^+, and CD127^+ markers (right panel; evaluated at day 10 of culture). All results are shown relative to the value of CD8^+ T cells at culture initiation (last column in FIGS. 10A-10B; “Day 0 Input Value”).
# [2] = system: human CD4+ and CD8+ T cells; experiment: Cytokine secretion (Luminex) in extended hybrid Th2/TREG culture with temsirolimus or pemetrexed; format: cell-based; conditions: hybrid TREG-Th2 condition; temsirolimus 1.0 μM or pemetrexed 10 nM
# Description: (§1) FIGS. 21A-21D illustrates that extended culture of de-differentiated T cells in the hybrid Th2/TREG polarization condition results in the generation of T cells expressing with a predominant Th2 cytokine phenotype: IL-4, IL-5, and IL-13 secretion. […] At days 12, 20, and 32 of culture, the T cells were harvested, washed, and re-stimulated with 3/28 beads (3:1 ratio) for 24 hr; the resultant supernatant was harvested and tested for cytokine content by Luminex multi-analyte method. All results shown are expressed as cytokine level in pg per ml per 1×10^6 cells/ml/24 hr. The Th2 cytokine IL-10 was also evaluated: all values were less than 20 pg/ml per 1×10^6 cells/ml/24 hr.
# as §1, with “22A-22D illustrate” for “21A-21D illustrates”, “IL-2, IFN-γ,” for “IL-4, IL-5,”, “GM-CSF” for “IL-13”, “inflammatory cytokines IL-17 and TNF-α were” for “Th2 cytokine IL-10 was”
# [3] = system: human CD4+ and CD8+ T cells; experiment: Western blot for Raptor, Rictor, p70S6K and SGK1 after 3-day de-differentiation culture; format: cell-based; conditions: combination agent de-differentiation: temsirolimus 1 μM, Vitamin D 0.03 to 1.0 nM, Daclizumab 50 μg/ml; relative to control culture
# Description: After the 3-day culture interval, the T cells were harvested, and protein was isolated and subjected to western blot analysis for the mTORC1 complex protein, Raptor; the mTORC2 complex protein, Rictor; the post-mTORC1 protein p70S6K; the post-mTORC2 protein, SGK1; and the housekeeping gene, GAPDH.
# [4] = system: human CD4+ and CD8+ T cells; experiment: RNA expression of Th1 transcription factors and HIF-1-α after 3-day culture (Luminex Quantigene); format: cell-based; conditions: bead:T cell 1:3, temsirolimus 1 μM, Vitamin D 0.1 to 1.0 nM, relative to control culture
# Procedure: (§2) At the end of the de-differentiation interval, cells were harvested, RNA was isolated, and RNA expression analysis was performed by Luminex Quantigene method. All results shown represent relative RNA expression, with results normalized to a value of 1.0 for the Th1/Tc1 control culture.
# [5] = system: human CD4+ and CD8+ T cells; experiment: Western blot for mTORC1-related molecule Raptor after 3-day de-differentiation culture; format: cell-based
# Description: After the 3-day culture interval, the T cells were harvested, and protein was isolated and subjected to western blot analysis for the mTORC1 complex protein, Raptor, and the housekeeping gene, Actin.
# [6] = system: human CD4+ and CD8+ T cells; experiment: RNA expression of de-differentiation transcription factors and IL-7 receptor alpha after 3-day culture (Luminex Quantigene); format: cell-based; conditions: bead:T cell 1:3, temsirolimus 1 μM, relative to control culture
# Procedure: as §2
# [7] = system: human CD4+ and CD8+ T cells; experiment: RNA expression of T cell effector molecules after 3-day de-differentiation culture (Luminex Quantigene); format: cell-based; conditions: 3-day culture, bead:T cell 1:3, temsirolimus 1 μM, Vitamin D 0.1 or 1.0 nM; relative to control Th1/Tc1 culture
# Procedure: as §2
# [8] = system: human CD4+ and CD8+ T cells; experiment: T cell yield at day 13 after de-differentiation and re-stimulation without inhibitors; format: cell-based
# Procedure: After 10 days (13 days of total culture), the T cells were harvested, enumerated, and evaluated by flow cytometry. FIG. 8 illustrates the effect of culture components during the de-differentiation interval on subsequent T cell yield (at day 13 of culture). […] After the 3-day interval, media was exchanged to fresh X-Vivo 20 without inhibitors, high-level co-stimulation was provided (3:1 bead-to-T cell ratio), and the T cell growth cytokines IL-2 (100 IU/ml) and IL-7 (10 ng/ml) were added. At day 13 of culture, viable T cells were enumerated and the overall yield is shown relative to day 0 input number.
# [9] = system: CD4+ T cells; experiment: Flow cytometry of CD4+ T cell memory markers after de-differentiation interval; format: cell-based, human
# Procedure: FIGS. 9A-9C illustrate the effect of culture components during the de-differentiation interval on CD4^+ T cell expression of memory markers (at day 13 of culture). […] After the 3-day interval, media was exchanged to fresh X-Vivo 20 without inhibitors, high-level co-stimulation was provided (3:1 bead-to-T cell ratio), and the T cell growth cytokines IL-2 (100 IU/ml) and IL-7 (10 ng/ml) were added. […] All results are shown relative to the value of CD4^+ T cells at culture initiation (last column in FIGS. 9A-9C; “Day 0 Input Value”).
# [10] = system: CD4+ and CD8+ T cells; experiment: Flow cytometry of GATA3 and FOXP3 in Th2/TREG cell product after 6-day culture; format: cell-based, human; conditions: control manufacturing culture that did not include IL-4
# Description: After the 6-day culture, the T cells were harvested, stained for surface markers (CD4 and CD8) and intracellular molecule expression (GATA3 and FOXP3) and evaluated by flow cytometry. Results in FIGS. 26A-B show the FOXP3 and GATA3 expression for CD4+ and CD8+ T cells at the start of culture and after culture (Th2/TREG) as measured by flow cytometry. The percentages provided indicate the amount of cells considered positive for CD4+ or CD8+ and the intracellular marker (shown in boxes).
# [11] = system: human CD4+ and CD8+ T cells; experiment: Cytokine secretion (Luminex) after 10-day re-differentiation in polarization conditions; format: cell-based; conditions: lack of IL-4 inclusion in the T cell re-differentiation process
# Description: FIGS. 16A-16C illustrate that the culture of de-differentiated T cells in hybrid Th2/TReg polarization condition results in the generation of T cells with a primitive Th2 cell cytokine phenotype: as indicated by high levels of IL-2 and IL-4 secretion and a low level of IL-5 secretion. Human CD4+ and CD8^+ T cells were subjected to a 3-day de-differentiation procedure and subsequent culture in media containing variable polarization culture conditions and variable presence of pemetrexed, as described in FIG. 13. Out of the total of n=24 culture conditions, only the cultures with favorable cell yields were further evaluated; all cultures shown that contained pemetrexed (“+”) were at the concentration of 10 nM. The TREG conditions above all contained IL-2, TGF-β, and IL-4 (“TReg”) unless indicated (“TReg, No IL4”). […] All results shown are expressed as cytokine level in pg per ml per 1×10^6 cells/ml/24 hr.
# FIGS. 17A-17C illustrate that the culture of de-differentiated T cells in hybrid Th2/TReg polarization condition results in the generation of T cells with a primitive Th2 cell cytokine phenotype: as indicated by low levels of IL-10, IL-13, and IL-17 secretion. […] Out of the total of n=24 culture conditions, only the cultures with favorable cell yields were further evaluated; all cultures shown that contained pemetrexed (“+”) were at the concentration of 10 nM. […] All results shown are expressed as cytokine level in pg per ml per 1×10^6 cells/ml/24 hr.
# FIGS. 18A-18C illustrates that the culture of de-differentiated T cells in hybrid Th2/TREG polarization condition results in the generation of T cells with a primitive Th2 cell cytokine phenotype: as indicated by low levels of IFN-gamma, TNF-alpha, and GM-CSF secretion. […] Out of the total of n=24 culture conditions, only the cultures with favorable cell yields were further evaluated; all cultures shown that contained pemetrexed (“+”) were at the concentration of 10 nM. […] All results shown are expressed as cytokine level in pg per ml per 1×10^6 cells/ml/24 hr.
# [12] = system: human CD4+ and CD8+ T cells; experiment: Western blot for pro-apoptosis molecule BIM after 3-day de-differentiation culture; format: cell-based; conditions: 3-day culture, bead:T cell 1:3; Vitamin D 0.1 nM, Daclizumab 50 μg/ml
# Description: After the 3-day culture interval, the T cells were harvested, and protein was isolated and subjected to western blot analysis for the pro-apoptosis-related gene, BIM, and the housekeeping gene, Actin.
# To assess this, we measured BIM levels in the T cells cultured with a low-strength of co-stimulation (1:3 bead-to-T cell ratio) and presence of the various inhibitors.
# [13] = Vitamin D 1.0 nM in combination
molecule,measurement,setting,value
CO[C@H]1C[C@@H]2CC[C@@H](C)[C@@](O)(O2)C(=O)C(=O)N2CCCC[C@H]2C(=O)O[C@H]([C@H](C)C[C@@H]2CC[C@@H](OC(=O)C(C)(CO)CO)[C@H](OC)C2)CC(=O)[C@H](C)/C=C(\C)[C@@H](O)[C@@H](OC)C(=O)[C@H](C)C[C@H](C)/C=C/C=C/C=C/1C [temsirolimus],"frequency of CD8+ triple-positive (CD62L, CCR7, CD127) T cells",[1],greatly reduced the frequency of triple-positive T cells
same,IL-5 secretion,[2],blunted
same,IL-13 secretion,[2],blunted
same,"Rictor expression (western blot, FIG. 6)",[3],effective
same,HIF-1-α RNA expression,[4],did not down-regulate
same,STAT1 RNA expression,[4],acts alone to beneficially down-regulate
same,T-BET RNA expression,[4],acts alone to beneficially down-regulate
same,optimal dose for down-regulation of Raptor,[5]; combination of Vitamin D plus temsirolimus,1.0 µM
same,Raptor expression,"[5]; temsirolimus 0.3 μM (culture 9), versus 1.0 μM",higher levels of Raptor expression
same,IL-7 receptor alpha RNA expression,[6]; [13],capable of up-regulating
same,KLF4 RNA expression,[6]; [13],neither temsirolimus nor Vitamin D alone increased
same,KLF10 RNA expression,[6]; [13],acts alone to beneficially up-regulate
same,Nanog RNA expression,[6]; Vitamin D 0.1 or 1.0 nM,up-regulation
same,Granzyme B RNA expression,[7],reduction
same,IFN-gamma RNA expression,[7],reduction
same,IL-10 RNA expression,[7],reduction
same,preferable concentration for T cell yield,[8]; de-differentiation interval,1.0 µM
same,T cell yield at day 13 of culture,[8]; temsirolimus concentration reduced to 0.1 μM (column #7),reduced the resultant T cell yield
same,CD4+ CD45RA+ naïve T cell population,[9]; elimination of temsirolimus during the initial culture interval (culture #6),depletion of the naïve T cell population
same,"frequency of CD4+ triple-positive (CD62L, CCR7, CD127) T cells",[9]; reducing or eliminating only temsirolimus from the initial culture interval (columns #5 and 6),greatly reduced the frequency of triple-positive T cells
B1,frequency of GATA3-positive T cells,[10],greatly reduced frequency of GATA3-positive T cells
same,GM-CSF secretion,[11],higher levels
same,IFN-γ secretion,[11],higher levels
same,TNF-α secretion,[11],higher levels
B2,"Rictor expression (western blot, FIG. 6)",[3],did not abrogate
same,"BIM expression (western blot, normalized by actin)",[12],beneficial role in suppressing
same,"Raptor expression (western blot, normalized by actin)","[5]; 3-day culture, bead:T cell 1:3, temsirolimus 1.0 μM, Vitamin D 0.1 nM, Daclizumab 50 μg/ml",beneficial role in suppressing
